Assays:
50B11 cells [1] = assay: Forskolin-induced differentiation and neurite extension of the immortalized DRG neuronal line; format: cell-based, rat; settings: for neurite extension in presence of neurotrophic factor: 50B11 cells
Method: One of the immortalized DRG neuronal cell lines (50B11) maintained self-replication capability over many cell divisions (>300) and was used in further analysis of neuronal properties. Differentiation and axonal elongation was induced in these cells by addition of forskolin (50 μM) into the culture medium. Within hours, more than 90% cells stopped dividing and extended long neurites. These cells were grown in 24-well plates on glass coverslips, fixed with 4% paraformaldehyde and immunostained for presence of neurofilament (SMI-32 antibody from Stemberger Monoclonals Inc., Lutherville, Md.), ßIII-tubulin (Promega, Madison Wis.), transient receptor potential channel, vanilloid subfamily member-1 (TRPV-1) (Abeam, Cambridge, Mass.), calcitonin gene related protein (CGRP) (source, city, state) or isolectin B-4 (IB4) (Vector Laboratories, Burlingame, Calif.) using standard methods (Keswani et al., supra). Slides were counterstained with 4′,6-Diamidino-2-phenylindole (DAPI) and mounted with Vectashield (Vector Laboratories, Burlingame, Calif.). Specificity of all primary and secondary antibodies was confirmed using appropriate positive and negative control cultures.

50B11 cells [2] = assay: Real-time PCR of gene expression changes; format: cell-based, rat
Method: For analysis of changes in gene expression, 501311 cells were grown in media containing forskolin (50 μM), NGF (10 ng/ml), GDNF (10 ng/ml) or vehicle control for 24 hours. Total RNA was isolated using the TRIzol Reagent according to the manufacturer's recommendation. Two μg total RNA was reverse-transcribed using Ready-To-Go You-Prime First-Strand Bead (Amersham Biosciences, Piscataway, N.J.) according to manufacturer's protocols. Real-time PCR was carried out in a DNA Engine Opticon Continuous Fluorescence Detection System using DyNAmo SYBR Green Polymerase (MJ Research, Waltham, Mass.). All primers were designed according to the individual gene sequence in the GenBank/EMBL nucleotide sequence database (primer sequences are available upon request). The binding positions of all primers were chosen to produce amplicons of 150 to 200 base pairs and to achieve maximum efficiency and specificity. All primer sequences were checked for specificity by a BLAST search in the GenBank/EMBL nucleotide sequence database. The primers were synthesized by Integrated DNA Technologies, Inc. (Coralville, Iowa). […] The expression levels of individual genes before and after treatment were calculated using the comparative CT method.

50B11 cells [3] = assay: Axonal degeneration, total neurite length measurement; format: cell-based, rat; settings: differentiated 50B11 cells treated 24 hours
50B11 cells [4] = settings: 24 hours
Method: Conditions for culturing the 50B11 cells and measuring the ATP levels were optimized for the 96-well plate format. Initially 500 cells/well were plated in 96-well plates for 24 hours and then differentiated with forskolin (50 μM) in culture medium with reduced serum (0.2%). […] Cellular ATP levels were measured using the ViaLight Plus kit (Cambrex, city, state) according to manufacturer's instructions. This luciferase-based assay allows measurement of ATP levels on a luminometer with minimal manipulation of the well contents.
Next, we tested whether we can evaluate the neurotoxicity of capsaicin in an assay suitable for 96-well plate format. Capsaicin causes axonal degeneration and death of nociceptive DRG sensory neurons [ref here]. In order to evaluate cell survival we used a luciferase-based assay to measure cellular ATP levels.

TRPV-1 = target: T1, TRPV-1 (Rattus norvegicus, UniProt O35433); assay: Ca2+ microfluorimetry (fura-2 ratiometric imaging) of the capsaicin response; format: cell-based
T1 construct: endogenous in cells; host or cells: 50B11 immortalized rat DRG neuronal cell line, with and without forskolin differentiation
T1 sequence (O35433 whole entry): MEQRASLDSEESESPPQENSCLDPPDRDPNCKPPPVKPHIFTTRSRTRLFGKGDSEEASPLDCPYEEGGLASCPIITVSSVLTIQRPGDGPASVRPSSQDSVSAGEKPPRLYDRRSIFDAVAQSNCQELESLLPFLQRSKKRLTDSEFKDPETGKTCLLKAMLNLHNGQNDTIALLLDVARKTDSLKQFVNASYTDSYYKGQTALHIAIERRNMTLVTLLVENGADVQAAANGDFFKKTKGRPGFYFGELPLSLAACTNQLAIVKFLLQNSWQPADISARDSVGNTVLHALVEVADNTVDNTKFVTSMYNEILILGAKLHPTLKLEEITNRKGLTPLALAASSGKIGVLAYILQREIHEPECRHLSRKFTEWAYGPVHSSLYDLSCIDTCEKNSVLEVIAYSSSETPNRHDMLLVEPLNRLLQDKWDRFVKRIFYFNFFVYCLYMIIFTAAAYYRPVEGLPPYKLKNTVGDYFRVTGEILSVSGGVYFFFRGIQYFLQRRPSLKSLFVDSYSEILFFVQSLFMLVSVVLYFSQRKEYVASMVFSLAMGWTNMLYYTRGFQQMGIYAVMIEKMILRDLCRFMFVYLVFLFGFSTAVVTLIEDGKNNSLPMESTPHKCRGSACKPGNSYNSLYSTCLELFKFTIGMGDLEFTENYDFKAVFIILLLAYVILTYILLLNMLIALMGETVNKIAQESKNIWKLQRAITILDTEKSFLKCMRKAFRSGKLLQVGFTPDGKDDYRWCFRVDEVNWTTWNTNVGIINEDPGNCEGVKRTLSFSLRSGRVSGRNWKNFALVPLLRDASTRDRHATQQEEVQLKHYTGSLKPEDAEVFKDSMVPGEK
Method: Ca^2+ microfluorimetry and imaging in forskolin-differentiated 50HB cells were performed by ratiometric imaging of the Ca2+-sensitive fluorescent dye fura-2. Cells were grown on glass coverslips in 12-well dishes and calcium imaging was done with and without differentiation with 50-μM forskolin. Cell were loaded for 15 min at 37° C. with 2 M fura-2 acetoxymethyl ester (Molecular Probes, Carlsbad, Calif.) in Krebs-HEPES buffer (100 mM NaCl, 2.0 mM KCl, 1.0 mM CaCl2, 1.0 mM MgCl2, 1.0 mM NaH2PO4, 4.2 mM NaHCO3, 12.5 mM HEPES and 10.0 mM glucose), then washed for 3 times in buffer to remove remaining fura-2 ester. The coverslip with loaded cells was then mounted on an inverted epifluorescence microscope (Zeiss, Axiovert 200) and covered with 60 μl Krebs-HEPES buffer or buffer with capsaicin. In capsazepin pretreatment experiments, capsazepin was added Images were acquired every ˜3 seconds with an extended Hamamatsu Digital Camera C4742-95 (Hamamatsu Photonics, Barcelona, Spain) using a dual filter wheel (Sutter Instruments, Novato, Calif., USA) equipped with 340 and 380 nm, 10-nm-bandpass filters (Omega Optics, Madrid, Spain). Data was acquired using InCyt Im2 software (Intracellular Imaging, Inc.). Fluorescence changes are expressed as the ratio of fluorescence at 340 and 380 nm (F340/F380).

Molecule: NGF: neurotrophic factor, nerve growth factor
- neurite extension in presence of neurotrophic factor (50B11 cells [1]): extended longer neurites
- Trk-A upregulation (50B11 cells [2]; forskolin plus NGF 10 ng/ml versus forskolin plus GDNF): more upregulated

Molecule: Nc1ccn([C@H]2CC[C@@H](CO)O2)c(=O)n1 [ddC]
- toxicity by total neuritic lengths (50B11 cells [3]): validated this toxicity

Molecule: Oc1cc2c(cc1O)CN(C(=S)NCCc1ccc(Cl)cc1)CCC2 [capsazepin]
- prevention of capsaicin-induced neurotoxicity (ATP levels) (50B11 cells [4]; co-administration with capsaicin): preventable
- prevention of capsaicin-induced rise in intracellular calcium (TRPV-1; pretreatment of 50B11 cells before capsaicin): preventable

Molecule: COc1cc(CNC(=O)CCCC/C=C/C(C)C)ccc1O [capsaicin]
- reduction in ATP levels (50B11 cells [4]; 10 μM capsaicin, differentiated 50B11 cells): about 50%
- intracellular calcium levels (TRPV-1; 50B11 cells, fura-2 F340/F380): rapid rise in intracellular calcium levels

Molecule: C=C[C@@]1(C)CC(=O)[C@]2(O)[C@@]3(C)[C@@H](O)CCC(C)(C)[C@@H]3[C@H](O)[C@H](OC(C)=O)[C@@]2(C)O1 [forskolin]
- cells that stopped dividing and extended long neurites (50B11 cells [1]; forskolin 50 μM in culture medium, within hours): more than 90%

Molecule: CCC(C)(C)C(=O)C(=O)N1CCC[C@H]1C(=O)OCCCc1cccnc1 [GPI-1046]
- prevention of ddC neurotoxicity (ATP levels) (50B11 cells [4]; co-administration with ddC): preventable

B1: GDNF: neurotrophic factor acting on c-ret and GFRα-1 (protein, UniProt P39905 78-211, looked up)
Glial cell line-derived …: SPDKQMAVLPRRERNRQAAAANPENSRGKGRRGQRGKNRGCVLTAIHLNVTDLGLGYETKEELIFRYCSGSCDAAETTYDKILKNLSRNRRLVSDKVGQACCRPIAFDDDLSFLDDNLVYHILRKHSAKRCGCI
- neurite extension in presence of neurotrophic factor (50B11 cells [1]): extended longer neurites
- GFRα-1 upregulation (50B11 cells [2]; forskolin plus GDNF 10 ng/ml versus forskolin plus NGF): more upregulated
